Experimental data: US20150087627A1, “COMBINATION OF KINASE INHIBITORS AND USES THEREOF” (Intellikine LLC, priority 2011, published 2015)

Assays:
Format in all cases: biochemical
PI3K β (p110β/p85α) = biological target: T1, PI3K β (p110β/p85α) (Homo sapiens, UniProt P42338); test: PI 3-Kinase (human) HTRF assay, PI3K β; details: read-out: PI3K β IC50
T1 construct: purchased Upstate / Millipore Corporation

PI3K α (p110α/p85α) = biological target: T2, PI3K α (p110α/p85α) (Homo sapiens, UniProt P42336); test: PI 3-Kinase (human) HTRF assay, PI3K α; details: read-out: PI3K α IC50
T2 construct: purchased Upstate / Millipore Corporation
T2 sequence (P42336 whole entry): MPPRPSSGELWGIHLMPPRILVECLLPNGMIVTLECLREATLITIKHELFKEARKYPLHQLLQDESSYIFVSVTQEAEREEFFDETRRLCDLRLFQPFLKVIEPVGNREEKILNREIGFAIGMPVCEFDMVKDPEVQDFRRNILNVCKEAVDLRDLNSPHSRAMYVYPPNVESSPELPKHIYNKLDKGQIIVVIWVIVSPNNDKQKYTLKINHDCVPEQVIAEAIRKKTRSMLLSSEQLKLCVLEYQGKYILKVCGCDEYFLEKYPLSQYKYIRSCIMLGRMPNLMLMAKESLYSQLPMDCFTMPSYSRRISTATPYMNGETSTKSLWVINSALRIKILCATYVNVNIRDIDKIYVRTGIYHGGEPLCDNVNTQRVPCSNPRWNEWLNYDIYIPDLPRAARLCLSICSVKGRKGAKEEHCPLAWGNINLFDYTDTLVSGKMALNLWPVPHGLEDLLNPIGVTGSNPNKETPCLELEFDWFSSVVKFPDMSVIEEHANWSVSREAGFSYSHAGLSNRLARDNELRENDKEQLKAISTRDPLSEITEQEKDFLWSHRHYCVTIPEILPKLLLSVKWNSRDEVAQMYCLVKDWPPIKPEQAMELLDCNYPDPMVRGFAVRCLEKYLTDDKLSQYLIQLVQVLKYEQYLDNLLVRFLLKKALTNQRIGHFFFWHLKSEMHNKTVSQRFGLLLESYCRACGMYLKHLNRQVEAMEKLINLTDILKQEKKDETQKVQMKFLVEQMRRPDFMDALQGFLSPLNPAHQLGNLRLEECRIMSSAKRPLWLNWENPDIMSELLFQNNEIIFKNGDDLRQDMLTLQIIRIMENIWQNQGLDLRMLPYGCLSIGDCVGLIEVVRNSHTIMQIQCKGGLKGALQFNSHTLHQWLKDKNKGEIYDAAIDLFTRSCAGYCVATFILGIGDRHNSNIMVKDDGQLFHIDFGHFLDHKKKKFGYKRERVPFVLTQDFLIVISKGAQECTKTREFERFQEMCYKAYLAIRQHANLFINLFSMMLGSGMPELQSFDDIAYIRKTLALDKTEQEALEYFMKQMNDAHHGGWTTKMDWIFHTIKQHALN
T2 sequence (P27986 whole entry partner): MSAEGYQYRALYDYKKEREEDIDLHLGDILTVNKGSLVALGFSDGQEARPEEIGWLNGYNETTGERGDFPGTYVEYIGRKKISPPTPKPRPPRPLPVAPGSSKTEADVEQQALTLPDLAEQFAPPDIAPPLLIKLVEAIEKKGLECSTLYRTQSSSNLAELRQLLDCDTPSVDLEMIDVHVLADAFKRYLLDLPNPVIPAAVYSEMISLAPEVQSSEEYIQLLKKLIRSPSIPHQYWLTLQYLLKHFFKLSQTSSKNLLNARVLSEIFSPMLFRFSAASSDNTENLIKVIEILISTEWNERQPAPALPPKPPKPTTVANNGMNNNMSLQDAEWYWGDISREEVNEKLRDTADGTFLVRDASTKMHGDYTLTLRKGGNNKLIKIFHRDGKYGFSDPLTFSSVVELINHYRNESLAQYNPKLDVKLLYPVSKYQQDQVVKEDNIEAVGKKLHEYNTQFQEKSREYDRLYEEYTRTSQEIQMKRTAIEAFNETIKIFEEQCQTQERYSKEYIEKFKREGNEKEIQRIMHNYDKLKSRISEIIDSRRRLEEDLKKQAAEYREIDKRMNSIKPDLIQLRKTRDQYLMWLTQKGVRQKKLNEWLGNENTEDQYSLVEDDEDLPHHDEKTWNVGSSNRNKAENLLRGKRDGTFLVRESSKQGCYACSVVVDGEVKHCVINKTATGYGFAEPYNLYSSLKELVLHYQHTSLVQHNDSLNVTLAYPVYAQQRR

PI3K δ = biological target: T3, PI3K δ (Homo sapiens, UniProt O00329); test: PI 3-Kinase (human) HTRF assay, PI3K δ; details: read-out: PI3K δ IC50
T3 construct: purchased Upstate / Millipore Corporation
T3 sequence (O00329 whole entry): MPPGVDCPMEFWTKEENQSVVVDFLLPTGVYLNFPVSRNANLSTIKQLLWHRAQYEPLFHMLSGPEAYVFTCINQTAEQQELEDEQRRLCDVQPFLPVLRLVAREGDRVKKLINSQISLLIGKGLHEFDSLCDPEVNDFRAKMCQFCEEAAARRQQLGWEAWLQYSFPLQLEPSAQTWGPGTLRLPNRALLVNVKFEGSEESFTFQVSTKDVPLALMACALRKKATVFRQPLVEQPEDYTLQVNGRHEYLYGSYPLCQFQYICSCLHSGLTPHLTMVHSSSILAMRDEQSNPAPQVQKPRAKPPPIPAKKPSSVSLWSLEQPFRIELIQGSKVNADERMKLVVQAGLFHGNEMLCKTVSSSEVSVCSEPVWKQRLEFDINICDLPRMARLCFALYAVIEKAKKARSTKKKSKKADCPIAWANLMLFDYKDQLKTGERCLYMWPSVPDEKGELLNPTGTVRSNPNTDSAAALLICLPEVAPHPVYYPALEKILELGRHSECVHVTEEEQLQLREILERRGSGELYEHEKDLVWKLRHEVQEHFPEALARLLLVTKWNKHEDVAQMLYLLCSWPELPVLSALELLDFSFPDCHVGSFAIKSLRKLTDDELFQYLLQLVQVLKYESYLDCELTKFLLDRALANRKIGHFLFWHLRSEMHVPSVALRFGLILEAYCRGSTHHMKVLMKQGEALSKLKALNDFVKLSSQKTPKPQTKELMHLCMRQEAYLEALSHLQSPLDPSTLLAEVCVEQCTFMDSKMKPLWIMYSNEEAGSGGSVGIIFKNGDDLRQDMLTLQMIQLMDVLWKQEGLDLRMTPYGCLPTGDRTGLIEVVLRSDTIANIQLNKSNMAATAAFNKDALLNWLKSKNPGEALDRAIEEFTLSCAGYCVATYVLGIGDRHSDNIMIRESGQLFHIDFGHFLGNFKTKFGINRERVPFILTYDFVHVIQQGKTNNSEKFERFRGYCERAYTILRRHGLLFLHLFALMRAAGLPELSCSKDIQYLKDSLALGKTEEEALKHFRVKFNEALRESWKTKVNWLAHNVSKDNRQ
T3 sequence (P27986 whole entry partner): as the sequence (P27986 whole entry partner) above

PI3K γ (p110γ) = biological target: T4, PI3K γ (p110γ) (Homo sapiens, UniProt P48736); test: PI 3-Kinase (human) HTRF assay, PI3K γ; details: read-out: PI3K γ IC50
T4 construct: purchased Upstate / Millipore Corporation
T4 sequence (P48736 whole entry): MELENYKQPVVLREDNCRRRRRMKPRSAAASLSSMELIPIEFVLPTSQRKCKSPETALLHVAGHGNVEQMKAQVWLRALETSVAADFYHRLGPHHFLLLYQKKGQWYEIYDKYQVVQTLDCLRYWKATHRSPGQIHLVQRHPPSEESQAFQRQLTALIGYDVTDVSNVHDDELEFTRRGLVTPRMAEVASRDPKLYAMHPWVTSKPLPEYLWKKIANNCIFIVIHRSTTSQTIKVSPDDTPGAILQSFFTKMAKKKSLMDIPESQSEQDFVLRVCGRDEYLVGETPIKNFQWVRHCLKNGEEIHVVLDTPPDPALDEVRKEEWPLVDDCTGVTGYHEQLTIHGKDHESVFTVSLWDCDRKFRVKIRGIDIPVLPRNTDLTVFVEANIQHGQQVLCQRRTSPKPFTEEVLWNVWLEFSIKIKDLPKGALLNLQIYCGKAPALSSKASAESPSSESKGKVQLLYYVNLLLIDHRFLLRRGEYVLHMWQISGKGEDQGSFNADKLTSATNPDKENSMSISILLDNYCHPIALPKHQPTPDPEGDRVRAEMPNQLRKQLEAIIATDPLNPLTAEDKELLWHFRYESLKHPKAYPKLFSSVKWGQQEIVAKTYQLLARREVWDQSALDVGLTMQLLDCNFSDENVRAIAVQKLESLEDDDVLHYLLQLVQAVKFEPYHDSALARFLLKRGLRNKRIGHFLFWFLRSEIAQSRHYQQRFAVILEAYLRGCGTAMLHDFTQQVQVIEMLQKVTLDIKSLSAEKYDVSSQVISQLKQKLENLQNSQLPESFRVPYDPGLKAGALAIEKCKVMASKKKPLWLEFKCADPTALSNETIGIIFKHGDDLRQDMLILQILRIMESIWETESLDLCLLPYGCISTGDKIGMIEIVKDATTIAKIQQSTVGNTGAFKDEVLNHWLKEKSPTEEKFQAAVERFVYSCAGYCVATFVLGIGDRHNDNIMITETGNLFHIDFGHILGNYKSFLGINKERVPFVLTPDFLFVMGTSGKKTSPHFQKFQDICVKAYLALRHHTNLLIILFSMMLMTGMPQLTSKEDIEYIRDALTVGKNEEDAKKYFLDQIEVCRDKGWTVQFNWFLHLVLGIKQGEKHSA

T1 sequence (P42338 whole entry): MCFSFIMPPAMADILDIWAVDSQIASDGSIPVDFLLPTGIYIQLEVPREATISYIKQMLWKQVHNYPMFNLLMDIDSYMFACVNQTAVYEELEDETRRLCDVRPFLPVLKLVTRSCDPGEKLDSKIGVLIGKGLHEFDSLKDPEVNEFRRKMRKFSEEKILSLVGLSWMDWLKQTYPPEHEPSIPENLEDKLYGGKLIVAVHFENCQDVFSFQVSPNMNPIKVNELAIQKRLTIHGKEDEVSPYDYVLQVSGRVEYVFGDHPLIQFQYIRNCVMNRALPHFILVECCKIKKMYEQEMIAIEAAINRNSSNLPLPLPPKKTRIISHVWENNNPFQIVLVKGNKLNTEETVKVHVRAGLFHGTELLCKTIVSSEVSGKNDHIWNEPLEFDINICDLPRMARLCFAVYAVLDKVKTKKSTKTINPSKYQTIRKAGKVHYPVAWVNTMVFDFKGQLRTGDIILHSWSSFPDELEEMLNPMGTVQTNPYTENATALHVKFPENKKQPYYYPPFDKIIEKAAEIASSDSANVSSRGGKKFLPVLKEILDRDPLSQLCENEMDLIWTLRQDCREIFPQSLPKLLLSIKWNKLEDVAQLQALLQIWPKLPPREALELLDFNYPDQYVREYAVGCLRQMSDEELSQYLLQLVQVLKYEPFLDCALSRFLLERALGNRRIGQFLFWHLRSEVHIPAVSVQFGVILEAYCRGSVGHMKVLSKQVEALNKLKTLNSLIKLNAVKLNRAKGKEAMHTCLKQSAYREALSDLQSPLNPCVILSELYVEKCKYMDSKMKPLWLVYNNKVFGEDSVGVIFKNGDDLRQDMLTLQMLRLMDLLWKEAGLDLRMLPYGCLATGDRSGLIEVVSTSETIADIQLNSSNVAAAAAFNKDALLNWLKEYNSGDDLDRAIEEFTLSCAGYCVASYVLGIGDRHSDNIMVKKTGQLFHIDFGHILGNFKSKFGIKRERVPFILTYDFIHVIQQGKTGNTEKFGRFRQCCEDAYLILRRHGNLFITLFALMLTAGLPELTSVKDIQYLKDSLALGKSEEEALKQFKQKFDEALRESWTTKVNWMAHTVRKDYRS
T1 sequence (P27986 whole entry partner): as the sequence (P27986 whole entry partner) above

| IC50 (PI3K β (p110β/p85α)) [µM] | IC50 (PI3K α (p110α/p85α)) [µM] | IC50 (PI3K δ) [µM] | IC50 (PI3K γ (p110γ)) [µM] | SMILES |
| --- | --- | --- | --- | --- |
| < 10 | < 1 | < 1 | < 0.1 | CC(=O)Nc1nc(C)c(-c2ccc3oc(N)nc3c2)s1 [Compound 312] |
| < 10 | < 1 | < 10 | < 10 | Nc1nc2cc(-c3ccc4ncc(N5CC(N6CCCC6)C5)nc4c3)ccc2o1 [Compound 314] |
| < 10 | < 1 | > 10 | < 10 | Nc1nc2cc(-c3ccc4ncc(C(=O)N(CCO)CCO)n4c3)ccc2o1 [Compound 316] |
| > 10 | > 10 | > 10 | > 10 | Nc1nc2cc(-c3ccc4ncn(C(=O)N5CCOCC5)c4c3)ccc2o1 [Compound 317] |
| < 1 | < 0.1 | < 10 | < 1 | Nc1nc2cc(-c3ccc4ncc(N5CC(n6ccnc6)C5)nc4c3)ccc2o1 [Compound 319] |
| < 10 | < 0.1 | < 10 | < 10 | Nc1nc2cc(-c3ccc4ncc(N5CC(N6CCS(=O)(=O)CC6)C5)nc4c3)ccc2o1 [Compound 334] |
| > 10 | < 0.1 | > 10 | < 1 | Nc1nc2cc(-c3ccc4ncc(N5CCC(n6cccn6)CC5)nc4c3)ccc2o1 [Compound 337] |
| < 10 | < 0.1 | < 10 | < 10 | Cc1cn(C2CCN(c3cnc4ccc(-c5ccc6oc(N)nc6c5)cc4n3)CC2)cn1 [Compound 338] |
| < 1 | < 0.1 | < 1 | < 1 | Cc1cn(C2CN(c3cnc4ccc(-c5ccc6oc(N)nc6c5)cc4n3)C2)cn1 [Compound 339] |
| > 10 | < 1 | > 10 | < 1 | Nc1nc2cc(-c3ccc4ncc(C(=O)N5CC5)n4c3)ccc2o1 [Compound 340] |
| > 10 | < 1 | < 10 | < 10 | Nc1nc2cc(-c3ccc4ncc(N5CC(N6CCC(O)CC6)C5)nc4c3)ccc2o1 [Compound 341] |
| < 1 | < 10 | > 10 | > 10 | Cc1cc2oc(N)nc2cc1-c1ccc2ncc(N3CCN[C@@H](C)C3)nc2c1 [Compound 351] |
| < 1 | < 0.1 | < 10 | < 0.1 | Nc1nc2cc(-c3ccc4ncc(C(=O)N5CCOCC5)n4c3)cc(Cl)c2o1 [Compound 359] |
| < 1 | < 0.1 | < 10 | < 0.1 | Nc1nc2cc(-c3ccc4ncc(C(=O)N5CCOCC5)n4c3)cc(F)c2o1 [Compound 360] |
| < 1 | < 0.1 | < 10 | < 1 | Nc1nc2cc(-c3ccc4ncc(N5CC(N6CCOCC6)C5)nc4c3)cc(F)c2o1 [Compound 361] |
| > 10 | > 10 | > 10 | > 10 | Cc1c(-c2ccc3ncc(N4CC(N5CCOCC5)C4)nc3c2)ccc2oc(N)nc12 [Compound 362] |
| < 10 | < 1 | > 10 | < 1 | Cc1cc(-c2ccc3ncc(C(=O)N4CCOCC4)n3c2)cc2nc(N)oc12 [Compound 364] |
| < 10 | < 10 | < 10 | < 10 | Cc1cc(-c2ccc3ncc(N4CC(N5CCOCC5)C4)nc3c2)cc2nc(N)oc12 [Compound 365] |
| < 1 | < 1 | < 10 | < 1 | Nc1nc2cc(-c3ccc4ncc(N5CC(N)C5)nc4c3)ccc2o1 [Compound 367] |
| < 10 | < 0.1 | < 1 | < 1 | Cc1cc(-c2ccc3oc(N)nc3c2)cc2c(C(=O)N3CCCC3)cnn12 [Compound 368] |
| > 10 | > 10 | > 10 | > 10 | Cc1c(-c2ccc3ncc(C(=O)N4CCOCC4)n3c2)ccc2oc(N)nc12 [Compound 369] |
| < 10 | < 1 | > 10 | > 10 | Nc1nc2cc(-c3ccc4ncc(N5CC(N6CCOCC6)C5)nc4c3)c(Cl)cc2o1 [Compound 371] |
| < 10 | < 1 | < 1 | < 1 | Nc1nc2cc(-c3ccc4ncc(N5CC[C@H](N6CCOCC6)C5)nc4c3)ccc2o1 [Compound 375] |
| < 10 | < 1 | > 10 | < 10 | CN1CCN(C(=O)c2cnn3ccc(-c4ccc5oc(N)nc5c4)cc23)CC1 [Compound 380] |
| > 10 | < 1 | > 10 | > 10 | Cc1c(-c2ccc3oc(N)nc3c2)ccc2ncc(N3CC(N4CCOCC4)C3)nc12 [Compound 383] |
| > 10 | < 1 | > 10 | < 10 | Nc1nc2cc(-c3ccc4ncc(N5CCNCC5=O)nc4c3)ccc2o1 [Compound 389] |
| > 10 | > 10 | > 10 | > 10 | CC(C)N1CCN(c2cnc3ccc(-c4ccc5oc(N)nc5c4)cc3n2)C(=O)C1 [Compound 392] |

| SMILES | IC50 (PI3K β (p110β/p85α)) [µM] | IC50 (PI3K α (p110α/p85α)) [µM] | IC50 (PI3K δ) [µM] | IC50 (PI3K γ (p110γ)) [µM] |
| --- | --- | --- | --- | --- |
| Cc1nccn1C1CCN(c2cnc3ccc(-c4ccc5oc(N)nc5c4)cc3n2)CC1 [Compound 344] | < 10 | < 0.1 | < 1 | < 10 |
| Nc1nc2cc(-c3ccn4ncc(C(=O)N5CCOCC5)c4c3)ccc2o1 [Compound 347] | < 10 | < 1 | > 10 | < 1 |
| C[C@@H]1CN(C2CN(c3cnc4ccc(-c5ccc6oc(N)nc6c5)cc4n3)C2)CCN1 [Compound 355] | < 10 | < 0.1 | < 1 | < 10 |
| Nc1nc2cc(-c3ccn4ncc(-c5ccncc5)c4c3)ccc2o1 [Compound 356] | < 0.1 | < 0.1 | < 0.1 | < 0.1 |
| C[C@H]1CN(c2cnc3ccc(-c4cccc5c(N)noc45)cc3n2)CCN1 [Compound 363] | > 10 | > 10 | > 10 | > 10 |
| CN(C)C1CN(c2cnc3ccc(-c4ccc5oc(N)nc5c4)cc3n2)C1 [Compound 366] | < 10 | < 0.1 | > 10 | < 10 |
| Cc1c(-c2ccc3oc(N)nc3c2)ccc2ncc(N3CCN[C@@H](C)C3)nc12 [Compound 374] | < 0.1 | < 1 | < 10 | > 10 |
| CN1CCC(c2cnc3ccc(-c4ccc5oc(N)nc5c4)cc3n2)CC1 [Compound 385] | < 10 | < 0.1 | > 10 | > 10 |
| CCN1CCN(c2cnc3ccc(-c4ccc5oc(N)nc5c4)cc3n2)C(=O)C1 [Compound 391] | > 10 | < 10 | > 10 | > 10 |
| Nc1nc2cc(-c3ccc4ncc(N5CCN(CC6CC6)CC5=O)nc4c3)ccc2o1 [Compound 393] | > 10 | < 10 | > 10 | > 10 |
| Nc1nc2cc(-c3ccc4ncc(N5CCn6cncc6C5)nc4c3)ccc2o1 [Compound 394] | < 0.1 | < 0.1 | < 1 | < 0.1 |
